Key:
cancer cell lines = test: Cytotoxicity (MTS), CIP2b with checkpoint inhibitors; assay type: cell-based; details: AZD7762 50 and 75 nM; MK1775 150 and 250 nM
Method: (§1) Cytotoxicity assay. Hec50co cells were seeded at 1500 cells per well in 96-well plates for 24 h in a complete medium. Later, the medium was removed and PTX, CIP2b, or CIP (all dissolved in DMSO and diluted in complete medium) were added to cells as either monotherapies or in combinations, and the plates were incubated for 72 hours. Then, the complete medium was removed and MTS reagent in the complete medium was added to wells, and the plates were incubated for 1-4 hours according to the manufacturer's protocol. Finally, the absorbance was recorded at 490 nm using a Spectra Max plus 384 Microplate Spectrophotometer (Molecular Devices, Sunnyvale, CA). Percentage cell viability was expressed as the average absorbance of the test group relative to that of the control group (untreated cells). The concentration that inhibits proliferation of 50% of cells compared to control (IC50) was calculated using GraphPad Prism (La Jolla, CA). Synergism was detected following the Chou-Talalay method (CI<1 indicates synergism) (Chou T C. Cancer research. 2010; 70(2):440-6, doi: 10.1158/0008-5472.CAN-09-1947) using CompuSyn software (Ver. 1.0).
Cytotoxicity was evaluated using the MTS assay described above.

human Topo I = molecular target: T1, human Topo I (Homo sapiens, UniProt P11387); test: Topoisomerase I inhibition assay (plasmid-based); assay type: biochemical; details: drug final concentration 100 μM
T1 construct: purchased TopoGEN Inc. TG1015-1A
T1 sequence (P11387 1-765): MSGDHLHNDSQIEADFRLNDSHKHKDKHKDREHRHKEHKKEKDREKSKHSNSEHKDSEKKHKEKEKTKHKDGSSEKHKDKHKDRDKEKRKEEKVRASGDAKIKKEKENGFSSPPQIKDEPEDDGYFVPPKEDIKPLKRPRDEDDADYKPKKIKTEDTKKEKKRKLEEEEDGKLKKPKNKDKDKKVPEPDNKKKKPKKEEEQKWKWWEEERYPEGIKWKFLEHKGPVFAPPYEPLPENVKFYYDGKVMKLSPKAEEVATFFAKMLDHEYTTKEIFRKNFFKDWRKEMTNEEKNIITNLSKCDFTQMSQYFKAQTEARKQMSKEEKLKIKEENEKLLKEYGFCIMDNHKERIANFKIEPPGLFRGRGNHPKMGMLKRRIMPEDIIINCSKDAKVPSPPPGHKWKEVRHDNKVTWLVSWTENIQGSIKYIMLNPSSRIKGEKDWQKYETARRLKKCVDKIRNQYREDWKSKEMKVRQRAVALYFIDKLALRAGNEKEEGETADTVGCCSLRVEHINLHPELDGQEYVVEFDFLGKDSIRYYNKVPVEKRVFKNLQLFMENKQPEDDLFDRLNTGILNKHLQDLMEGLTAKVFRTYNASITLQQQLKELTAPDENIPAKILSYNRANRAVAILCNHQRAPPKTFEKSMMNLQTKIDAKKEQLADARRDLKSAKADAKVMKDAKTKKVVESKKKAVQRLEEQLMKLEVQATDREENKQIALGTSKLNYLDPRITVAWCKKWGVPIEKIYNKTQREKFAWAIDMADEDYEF
Method: Topoisomerase I inhibition assay. A plasmid-based Topo I assay (Cat. No. TG1015-1A, TopoGEN Inc., Buena Vista, CO) was performed according to the manufacturer's instructions. Briefly, 1 μL of the test compounds (PTX, CIP, CIP2b, or CAM) at a concentration of 2 mM, was mixed with 2 μL of the reaction buffer (10× tris-glycine-SDS), and deionized water was added to make 18 μL solution. This was followed by adding 1 μL of supercoiled DNA (SC DNA) and 1 μL of human Topo I (10 U/μL) (drug final concentration was 100 μM). Also, SC DNA±Topo I was used as a control (i.e., not containing drugs). In addition, relaxed DNA was added as another control in this assay. Samples were incubated on a heating block (Isotemp 125 D Digital Heat Block, ThermoFisher Scientific) set at 37° C. for 30 minutes. Then, the reaction was stopped by adding a 5× stop buffer. Samples were then loaded directly into the wells of a 1% agarose gel (Research Products International, Mount Prospect, IL). The gel was run at 150 V until the dye front had traveled approximately 5 cm (run time was approximately 2 hours). The gel was then stained with 1 μg/mL ethidium bromide in deionized water for 15 minutes, and this was followed by de-staining (washing) with deionized water for 30 min before imaging. The image was then taken using an Invitrogen iBright CL 1500 Imaging System (ThermoFisher Scientific). The intensity of the final bands in the gel was quantified using ImageJ, and the results are expressed as the percentage of Topo I inhibition.

Hec50co cells = test: Cytotoxicity assay (MTS), Hec50co cells; assay type: cell-based, human; details: 10 μM CIP added to PTX, 72 h
Method: as §1, with “1.0). […]” for “1.0).”

human Topo IIα = molecular target: T2, human Topo IIα (Homo sapiens, UniProt P11388); test: Topoisomerase II inhibition assay (plasmid-based); assay type: biochemical; details: drug final concentration 100 μM; read-out: percentage of Topo II inhibition
T2 construct: purchased TopoGEN Inc. TG1001-1A
T2 sequence (P11388 whole entry): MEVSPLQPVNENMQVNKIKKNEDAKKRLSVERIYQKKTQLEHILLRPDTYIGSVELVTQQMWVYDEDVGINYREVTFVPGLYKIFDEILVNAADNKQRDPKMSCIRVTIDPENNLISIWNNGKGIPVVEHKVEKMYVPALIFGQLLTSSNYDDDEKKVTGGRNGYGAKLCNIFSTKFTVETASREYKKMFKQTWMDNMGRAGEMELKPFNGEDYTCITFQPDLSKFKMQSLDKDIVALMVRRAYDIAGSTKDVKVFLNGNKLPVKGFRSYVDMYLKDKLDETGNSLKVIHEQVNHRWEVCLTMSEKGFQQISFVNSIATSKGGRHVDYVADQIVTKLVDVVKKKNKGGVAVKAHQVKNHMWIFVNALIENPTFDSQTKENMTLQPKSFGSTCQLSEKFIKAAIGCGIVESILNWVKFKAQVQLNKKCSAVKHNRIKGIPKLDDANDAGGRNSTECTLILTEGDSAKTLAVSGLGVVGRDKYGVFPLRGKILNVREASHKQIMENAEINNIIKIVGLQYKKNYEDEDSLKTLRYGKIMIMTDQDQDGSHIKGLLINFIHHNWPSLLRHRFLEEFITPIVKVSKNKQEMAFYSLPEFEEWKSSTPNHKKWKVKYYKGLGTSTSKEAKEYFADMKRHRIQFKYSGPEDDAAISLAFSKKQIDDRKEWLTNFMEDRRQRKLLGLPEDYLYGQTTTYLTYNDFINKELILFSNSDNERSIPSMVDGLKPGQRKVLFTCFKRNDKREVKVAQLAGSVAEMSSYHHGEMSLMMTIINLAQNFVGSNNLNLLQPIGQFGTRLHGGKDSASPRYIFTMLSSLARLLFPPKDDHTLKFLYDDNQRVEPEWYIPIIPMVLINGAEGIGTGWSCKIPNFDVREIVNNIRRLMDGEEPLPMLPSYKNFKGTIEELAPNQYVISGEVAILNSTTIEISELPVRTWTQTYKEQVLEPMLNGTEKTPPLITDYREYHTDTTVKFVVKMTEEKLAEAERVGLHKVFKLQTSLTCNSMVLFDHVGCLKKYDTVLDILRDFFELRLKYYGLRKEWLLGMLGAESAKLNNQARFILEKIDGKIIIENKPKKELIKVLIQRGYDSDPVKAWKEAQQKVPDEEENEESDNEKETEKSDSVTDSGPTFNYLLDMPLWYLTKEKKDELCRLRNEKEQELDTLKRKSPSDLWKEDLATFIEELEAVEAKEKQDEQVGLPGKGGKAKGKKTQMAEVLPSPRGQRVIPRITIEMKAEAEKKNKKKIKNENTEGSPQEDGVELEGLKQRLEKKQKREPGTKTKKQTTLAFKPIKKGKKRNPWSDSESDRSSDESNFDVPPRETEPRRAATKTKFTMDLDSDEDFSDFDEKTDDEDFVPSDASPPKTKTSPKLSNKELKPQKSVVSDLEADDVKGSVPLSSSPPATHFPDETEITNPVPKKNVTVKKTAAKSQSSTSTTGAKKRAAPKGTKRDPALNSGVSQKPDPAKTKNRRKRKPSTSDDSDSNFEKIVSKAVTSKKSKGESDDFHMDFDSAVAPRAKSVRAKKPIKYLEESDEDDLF
Method: Topoisomerase II inhibition assay. A plasmid-based Topo II assay (Cat. No. TG1001-1A, TopoGEN Inc., Buena Vista, CO) was performed according to the manufacturer's instructions. In this experiment, 1 μL of tested compounds (PTX, CIP, CIP2b, ETO) at a concentration of 2 mM was mixed with 4 μL of the reaction buffer (mixture of buffer A (0.5 M Tris-HCl (pH 8), 1.50 M NaCl, 100 mM MgCl2, 5 mM Dithiothreitol, 300 μg BSA/mL) and buffer B (10× ATP Buffer), and deionized water was added to make 18 μL solution. This was followed by adding 1 μL of catenated DNA and 1 μL of human Topo IIα (8 U/μL) (drug final concentration was 100 μM). Additionally, decatenated DNA (De-CT DNA) and catenated DNA (CT DNA)±Topo II were used as a control (i.e., not containing drugs). Moreover, relaxed DNA was added as another control in this assay. Similar to Topo I assay, samples were then incubated on a heating block set at 37° C. for 30 minutes. Then, the reaction was stopped by the addition of a 5× stop buffer. Samples were then loaded directly into the wells of a 1% agarose gel containing 1 μg/mL ethidium bromide. The gel was run at 150 V until the dye front had traveled approximately 5 cm (run time was approximately 2 h). The gel was then washed with deionized water for 30 minutes before imaging. The image was taken using an Invitrogen iBright CL1500 Imaging System. The intensity of the final bands in the gel was quantified using ImageJ, and the results are expressed as the percentage of Topo II inhibition.

[1] = system: advanced pancreatic ductal adenocarcinoma (PDAC); details: patients with advanced PDAC; cited from earlier work

inhibition at 100 µM (human Topo IIα) [%] | Structure (SMILES) | potentiation or synergism in combination with CIP2b (cancer cell lines) | Topo I inhibitory activity (gel) (human Topo I) | also measured
 | NC(=O)Nc1cc(-c2cccc(F)c2)sc1C(=O)N[C@H]1CCCNC1 [AZD7762] | did not show any noticeable potentiation or synergism |  | 
 | CC[C@@]1(O)C(=O)OCc2c1cc1n(c2=O)Cc2cc3ccccc3nc2-1 [CAM, camptothecin] |  | potent inhibitor of Topo I | 
62 | O=C(O)c1cn(C2CC2)c2cc(N3CCNCC3)c(F)cc2c1=O [CIP, ciprofloxacin] |  | neither PTX nor CIP did inhibit Topo I | survival curve of PTX with added compound vs PTX alone (Hec50co cells): superimposed
~96 | COc1cc([C@@H]2c3cc4c(cc3[C@@H](O[C@@H]3O[C@@H]5CO[C@@H](C)O[C@H]5[C@H](O)[C@H]3O)[C@H]3COC(=O)[C@H]23)OCO4)cc(OC)c1O [ETO, etoposide] |  |  | 
 | C=CCn1c(=O)c2cnc(Nc3ccc(N4CCN(C)CC4)cc3)nc2n1-c1cccc(C(C)(C)O)n1 [MK1775, adavosertib] | did not show any noticeable potentiation or synergism |  | 
 | Nc1ccn([C@@H]2O[C@H](CO)[C@@H](O)C2(F)F)c(=O)n1 [gemcitabine] |  |  | median survival [1]: 6.7-6.8 months
